The values that follow come from US11028079B2 (ConverGene LLC, priority 2015, dated 2021).

pKd: −log10 of the molar value.

In the assay the target is T1, BRD4 bromodomains (Homo sapiens, UniProt O60885).
T1 construct: fused on or other part: T7 phage capsid protein (phage-display fusion; the phage DNA is read out by qPCR)
Kind of assay: BROMOscan bromodomain competition binding assay (DiscoveRx). As to conditions: Kd from 11 compound concentrations ranging from 0 to 10 μM, read-out: BROMOscan Relative Activity. In short, it runs like this: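 Compounds in 0.1% DMSO/0.9% MEG competed with a solid-phase acetylated peptide for T7 phage-fused BRD4 bromodomains, with the retained bromodomain measured by qPCR.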
Take `Cc1noc(C)c1-c1ccc2nc(NCc3ncc[nH]3)nc(NCc3cccc(Cl)c3)c2c1` [Example 178, N2-((1H-imidazol-2-yl)methyl)-N4-(3-chlorobenzyl)-6-(3,5-dimethylisoxazol-4-yl)quinazoline-2,4-diamine]: the pKd was above 6.30. Consider `CCNC(=O)N1CCN(c2nc(N3CCOC[C@@H]3c3ccccc3)c3cc(-c4c(C)noc4C)ccc3n2)CC1` [Example 299, (S)-4-(6-(3,5-dimethylisoxazol-4-yl)-4-(3-phenylmorpholino)quinazolin-2-yl)-N-ethylpiperazine-1-carboxamide], for which the pKd was above 6.30.

As to `COCCn1cc(-c2nc(NCc3cccc(Cl)c3)c3cc(-c4c(C)noc4C)ccc3n2)cn1` [Example 58, N-(3-chlorobenzyl)-6-(3,5-dimethylisoxazol-4-yl)-2-(1-(2-methoxyethyl)-1H-pyrazol-4-yl)quinazolin-4-amine], the pKd was above 6.30.

As for `Cc1ccncc1CNc1nc(N2CCN(CCN(C)C)CC2)nc2ccc(-c3c(C)noc3C)cc12` [Example 84, 2-(4-(2-(dimethylamino)ethyl)piperazin-1-yl)-6-(3,5-dimethylisoxazol-4-yl)-N-((4-methylpyridin-3-yl)methyl)quinazolin-4-amine], the pKd was above 6.30. In the case of `Cc1noc(C)c1-c1ccc2nc(N3CCN(CC(C)(C)O)CC3)nc(NCc3cccc(Cl)c3)c2c1` [Example 137, 1-(4-(4-((3-chlorobenzyl)amino)-6-(3,5-dimethylisoxazol-4-yl)quinazolin-2-yl)piperazin-1-yl)-2-methylpropan-2-ol] it was 5.30 to 6.30; in that of `Cc1n[nH]c(C)c1CNC(=O)c1nc(NCc2cccc(Cl)c2)c2cc(-c3c(C)noc3C)ccc2n1` [Example 257, 4-((3-chlorobenzyl)amino)-N-((3,5-dimethyl-1H-pyrazol-4-yl)methyl)-6-(3,5-dimethylisoxazol-4-yl)quinazoline-2-carboxamide], above 6.30; in that of `Cc1noc(C)c1-c1ccc2nc(C(=O)NC3CCOCC3)nc(NC3(c4cccc(Cl)c4)CC3)c2c1` [Example 247, 4-((1-(3-chlorophenyl)cyclopropyl)amino)-6-(3,5-dimethylisoxazol-4-yl)-N-(tetrahydro-2H-pyran-4-yl)quinazoline-2-carboxamide], above 6.30. In the case of `Cn1cc(-c2ccc3nc(N4CCN(CCO)CC4)nc(NCc4cncc(Cl)c4)c3c2)ccc1=O` [Example 126, 5-(4-(((5-chloropyridin-3-yl)methyl)amino)-2-(4-(2-hydroxyethyl)piperazin-1-yl)quinazolin-6-yl)-1-methylpyridin-2(1H)-one] it was above 6.30. In the case of `Cc1noc(C)c1-c1ccc2nc(C(=O)NCC3CN(C)C3)nc(NCc3cncc(Cl)c3)c2c1` [Example 233, 4-(((5-chloropyridin-3-yl)methyl)amino)-6-(3,5-dimethylisoxazol-4-yl)-N-((1-methylazetidin-3-yl)methyl)quinazoline-2-carboxamide] it was above 6.30; in that of `Cn1cc(C(=O)N2CCN(c3nc(NCc4cccc(Cl)c4)c4cc(-c5ccc(=O)n(C)c5)ccc4n3)CC2)cn1` [Example 122, 5-(4-((3-chlorobenzyl)amino)-2-(4-(1-methyl-1H-pyrazole-4-carbonyl)piperazin-1-yl)quinazolin-6-yl)-1-methylpyridin-2(1H)-one], above 6.30.

On to `Cc1noc(C)c1-c1ccc2nc(-c3cnn(CC(C)(C)O)c3)nc(N3CCNC[C@@H]3c3ccccc3)c2c1` [Example 291, (S)-1-(4-(6-(3,5-dimethylisoxazol-4-yl)-4-(2-phenylpiperazin-1-yl)quinazolin-2-yl)-1H-pyrazol-1-yl)-2-methylpropan-2-ol], for which the pKd was above 6.30.

Take `Cc1noc(C)c1-c1ccc2c(NCc3cccc(Cl)c3)nc(N3CCN(CCN(C)C)CC3)nc2c1` [Example 39, N-(3-chlorobenzyl)-2-(4-(2-(dimethylamino)ethyl)piperazin-1-yl)-7-(3,5-dimethylisoxazol-4-yl)quinazolin-4-amine]: the pKd is 5.30 to 6.30.

As for `Cc1noc(C)c1-c1ccc2nc(N3CCN(CCN(C)C)CC3)nc(NCc3cncc(F)c3)c2c1` [Example 83, 2-(4-(2-(dimethylamino)ethyl)piperazin-1-yl)-6-(3,5-dimethylisoxazol-4-yl)-N-((5-fluoropyridin-3-yl)methyl)quinazolin-4-amine], the pKd is above 6.30. To `Cc1noc(C)c1-c1ccc2nc(N3CCN(CCN(C)C)CC3)nc(Nc3ccc(Cl)cc3)c2c1` [Example 162, N-(4-chlorophenyl)-2-(4-(2-(dimethylamino)ethyl)piperazin-1-yl)-6-(3,5-dimethylisoxazol-4-yl)quinazolin-4-amine] belongs 5.30 to 6.30. To `Cc1noc(C)c1-c1ccc2c(NCc3cccc(Cl)c3)nc(-c3cnn(CC(N)=O)c3)nc2c1` [Example 51, 2-(4-(4-((3-chlorobenzyl)amino)-7-(3,5-dimethylisoxazol-4-yl)quinazolin-2-yl)-1H-pyrazol-1-yl)acetamide] belongs 5.30 to 6.30; to `Cc1cc(NC(=O)c2nc(NCc3cccc(Cl)c3)c3cc(-c4c(C)noc4C)ccc3n2)cc(C)n1` [Example 224, 4-((3-chlorobenzyl)amino)-6-(3,5-dimethylisoxazol-4-yl)-N-(2,6-dimethylpyridin-4-yl)quinazoline-2-carboxamide], 5.30 to 6.30; to `CC(=O)N1CCN(c2nc(NC3(c4cccc(Cl)c4)CC3)c3cc(-c4c(C)noc4C)ccc3n2)CC1` [Example 185, 1-(4-(4-((1-(3-chlorophenyl)cyclopropyl)amino)-6-(3,5-dimethylisoxazol-4-yl)quinazolin-2-yl)piperazin-1-yl)ethanone], above 6.30. Regarding `Cc1oncc1-c1ccc2nc(N3CCN(CCN(C)C)CC3)nc(NCc3cccc(Cl)c3)c2c1` [Example 78, N-(3-chlorobenzyl)-2-(4-(2-(dimethylamino)ethyl)piperazin-1-yl)-6-(5-methylisoxazol-4-yl)quinazolin-4-amine], the pKd is 5.30 to 6.30.

Consider `Cc1noc(C)c1-c1ccc2nc(C(=O)NC3CN(C)C3)cc(NCc3cccc(Cl)c3)c2c1` [Example 234, 4-((3-chlorobenzyl)amino)-6-(3,5-dimethylisoxazol-4-yl)-N-(1-methylazetidin-3-yl)quinoline-2-carboxamide], for which the pKd is above 6.30.

Turning to `Cc1noc(C)c1-c1ccc2nc(N3CCN(CC(N)=O)CC3)nc(N3CCOC[C@@H]3c3ccccc3)c2c1` [Example 307, (S)-2-(4-(6-(3,5-dimethylisoxazol-4-yl)-4-(3-phenylmorpholino)quinazolin-2-yl)piperazin-1-yl)acetamide], the pKd is above 6.30. In the case of `Cc1noc(C)c1-c1ccc2nc(N3CCC(S(C)(=O)=O)CC3)nc(NCc3cccc(Cl)c3)c2c1` [Example 153, N-(3-chlorobenzyl)-6-(3,5-dimethylisoxazol-4-yl)-2-(4-(methylsulfonyl)piperidin-1-yl)quinazolin-4-amine] it was above 6.30; in that of `Cc1noc(C)c1-c1ccc2nc(N3CCN(CCO)CC3)nc(NCc3cncc(Cl)c3)c2c1` [Example 120, 2-(4-(4-(((5-chloropyridin-3-yl)methyl)amino)-6-(3,5-dimethylisoxazol-4-yl)quinazolin-2-yl)piperazin-1-yl)ethanol], above 6.30; in that of `Cc1noc(C)c1-c1ccc2nc(-c3cnn(CC(N)=O)c3)nc(N3CCOC[C@@H]3c3ccccc3)c2c1` [Example 297, (S)-2-(4-(6-(3,5-dimethylisoxazol-4-yl)-4-(3-phenylmorpholino)quinazolin-2-yl)-1H-pyrazol-1-yl)acetamide], above 6.30. For `Cc1noc(C)c1-c1ccc2nc(C(=O)NCc3cncn3C)nc(NCc3cncc(Cl)c3)c2c1` [Example 232, 4-(((5-chloropyridin-3-yl)methyl)amino)-6-(3,5-dimethylisoxazol-4-yl)-N-((1-methyl-1H-imidazol-5-yl)methyl)quinazoline-2-carboxamide], the pKd is above 6.30. To `Cc1noc(C)c1-c1ccc2nc(N3CCC(CCN(C)C)CC3)nc(NCc3cccc(Cl)c3)c2c1` [Example 34, N-(3-chlorobenzyl)-2-(4-(2-(dimethylamino)ethyl)piperidin-1-yl)-6-(3,5-dimethylisoxazol-4-yl)quinazolin-4-amine] belongs above 6.30; to `Cc1cc(CNC(=O)c2nc(NCc3cccc(Cl)c3)c3cc(-c4c(C)noc4C)ccc3n2)ccn1` [Example 249, 4-((3-chlorobenzyl)amino)-6-(3,5-dimethylisoxazol-4-yl)-N-((2-methylpyridin-4-yl)methyl)quinazoline-2-carboxamide], above 6.30.

Regarding `Cc1noc(C)c1-c1ccc2nc(C(=O)N[C@H]3C[C@H](O)C3)nc(NCc3cccc(Cl)c3)c2c1` [Example 253, 4-((3-chlorobenzyl)amino)-6-(3,5-dimethylisoxazol-4-yl)-N-((trans)-3-hydroxycyclobutyl)quinazoline-2-carboxamide], the pKd is above 6.30. As to `Cc1noc(C)c1-c1ccc2nc(NCCN3CCOCC3)nc(NCc3cccc(Cl)c3)c2c1` [Example 10, N4-(3-chlorobenzyl)-6-(3,5-dimethylisoxazol-4-yl)-N2-(2-morpholinoethyl)quinazoline-2,4-diamine], the pKd is above 6.30.

As for `Cc1noc(C)c1-c1ccc2nc(N3CCc4[nH]ncc4C3)nc(NCc3cccc(Cl)c3)c2c1` [Example 290, N-(3-chlorobenzyl)-6-(3,5-dimethylisoxazol-4-yl)-2-(1,4,6,7-tetrahydro-5H-pyrazolo[4,3-c]pyridin-5-yl)quinazolin-4-amine], the pKd was 5.30 to 6.30. With `Cc1noc(C)c1-c1ccc2nc(-c3cnn(CCO)c3)nc(Nc3ccc(Cl)cc3)c2c1` [Example 150, 2-(4-(4-((4-chlorophenyl)amino)-6-(3,5-dimethylisoxazol-4-yl)quinazolin-2-yl)-1H-pyrazol-1-yl)ethanol], the pKd was 5.30 to 6.30. In the case of `Cc1noc(C)c1-c1ccc2nc(C(=O)NC3CCN(C)CC3)cc(NCc3cccc(Cl)c3)c2c1` [Example 228, 4-((3-chlorobenzyl)amino)-6-(3,5-dimethylisoxazol-4-yl)-N-(1-methylpiperidin-4-yl)quinoline-2-carboxamide] it was above 6.30.
